For 14 molecules, IC50 and inhibition results are on record in patent publication US20230073777A1, “CYCLIC-AMP RESPONSE ELEMENT BINDING PROTEIN (CBP) AND/OR ADENOVIRAL E1A BINDING PROTEIN OF 300 KDA (P300) DEGRADATION COMPOUNDS AND METHODS OF USE” (CULLGEN (SHANGHAI), INC., priority 2019, published 2023).

Read-outs that look alike come from different tables or passages of the source. Some results are limits rather than exact numbers.

In assay [1] the test system is LNCaP cells. The assay is described as follows: LNCaP cell viability assay (CellTiter-Glo). The class given is cell-based. As to conditions: Homo sapiens, 72 h, LNCaP prostate cancer cell viability inhibition, 3 days. In short, it runs like this:
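LNCaP cells, 5000/well, exposed to compounds in 12-point 3-fold serial dilution (top 10 μM) for 3 days. Viability by CellTiter-Glo luminescence, normalized to untreated cells; IC50 by least-squares nonlinear regression.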

The target of assay [2] is P300 (Homo sapiens, UniProt Q09472). The assay is described as follows: Immunoblotting of P300 protein levels in LNCaP or 22RV1 cells. As to conditions: read-out: Degradation (10 nM). It counts as cell-based. Also noted: LNCaP or 22RV1 cells that express CBP/P300 proteins were treated with GNE-781 or the bivalent compounds; endogenous in cells; host or cells: LNCaP (clone FGC) or 22RV1 cells. In short, it runs like this:
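LNCaP or 22RV1 cells treated with compounds for indicated hours, DMSO as negative control. RIPA lysates resolved by SDS-PAGE and immunoblotted for P300 or CBP, tubulin or vinculin as loading control; chemiluminescent bands quantitated.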

The mark [3] stands for this setting: percentage of inhibition of p300 at 10 nM (Table 3).
Where [4] appears, read: percentage of inhibition of p300 at 10 nM (Table 2).

P300, sequence (Q09472 whole entry): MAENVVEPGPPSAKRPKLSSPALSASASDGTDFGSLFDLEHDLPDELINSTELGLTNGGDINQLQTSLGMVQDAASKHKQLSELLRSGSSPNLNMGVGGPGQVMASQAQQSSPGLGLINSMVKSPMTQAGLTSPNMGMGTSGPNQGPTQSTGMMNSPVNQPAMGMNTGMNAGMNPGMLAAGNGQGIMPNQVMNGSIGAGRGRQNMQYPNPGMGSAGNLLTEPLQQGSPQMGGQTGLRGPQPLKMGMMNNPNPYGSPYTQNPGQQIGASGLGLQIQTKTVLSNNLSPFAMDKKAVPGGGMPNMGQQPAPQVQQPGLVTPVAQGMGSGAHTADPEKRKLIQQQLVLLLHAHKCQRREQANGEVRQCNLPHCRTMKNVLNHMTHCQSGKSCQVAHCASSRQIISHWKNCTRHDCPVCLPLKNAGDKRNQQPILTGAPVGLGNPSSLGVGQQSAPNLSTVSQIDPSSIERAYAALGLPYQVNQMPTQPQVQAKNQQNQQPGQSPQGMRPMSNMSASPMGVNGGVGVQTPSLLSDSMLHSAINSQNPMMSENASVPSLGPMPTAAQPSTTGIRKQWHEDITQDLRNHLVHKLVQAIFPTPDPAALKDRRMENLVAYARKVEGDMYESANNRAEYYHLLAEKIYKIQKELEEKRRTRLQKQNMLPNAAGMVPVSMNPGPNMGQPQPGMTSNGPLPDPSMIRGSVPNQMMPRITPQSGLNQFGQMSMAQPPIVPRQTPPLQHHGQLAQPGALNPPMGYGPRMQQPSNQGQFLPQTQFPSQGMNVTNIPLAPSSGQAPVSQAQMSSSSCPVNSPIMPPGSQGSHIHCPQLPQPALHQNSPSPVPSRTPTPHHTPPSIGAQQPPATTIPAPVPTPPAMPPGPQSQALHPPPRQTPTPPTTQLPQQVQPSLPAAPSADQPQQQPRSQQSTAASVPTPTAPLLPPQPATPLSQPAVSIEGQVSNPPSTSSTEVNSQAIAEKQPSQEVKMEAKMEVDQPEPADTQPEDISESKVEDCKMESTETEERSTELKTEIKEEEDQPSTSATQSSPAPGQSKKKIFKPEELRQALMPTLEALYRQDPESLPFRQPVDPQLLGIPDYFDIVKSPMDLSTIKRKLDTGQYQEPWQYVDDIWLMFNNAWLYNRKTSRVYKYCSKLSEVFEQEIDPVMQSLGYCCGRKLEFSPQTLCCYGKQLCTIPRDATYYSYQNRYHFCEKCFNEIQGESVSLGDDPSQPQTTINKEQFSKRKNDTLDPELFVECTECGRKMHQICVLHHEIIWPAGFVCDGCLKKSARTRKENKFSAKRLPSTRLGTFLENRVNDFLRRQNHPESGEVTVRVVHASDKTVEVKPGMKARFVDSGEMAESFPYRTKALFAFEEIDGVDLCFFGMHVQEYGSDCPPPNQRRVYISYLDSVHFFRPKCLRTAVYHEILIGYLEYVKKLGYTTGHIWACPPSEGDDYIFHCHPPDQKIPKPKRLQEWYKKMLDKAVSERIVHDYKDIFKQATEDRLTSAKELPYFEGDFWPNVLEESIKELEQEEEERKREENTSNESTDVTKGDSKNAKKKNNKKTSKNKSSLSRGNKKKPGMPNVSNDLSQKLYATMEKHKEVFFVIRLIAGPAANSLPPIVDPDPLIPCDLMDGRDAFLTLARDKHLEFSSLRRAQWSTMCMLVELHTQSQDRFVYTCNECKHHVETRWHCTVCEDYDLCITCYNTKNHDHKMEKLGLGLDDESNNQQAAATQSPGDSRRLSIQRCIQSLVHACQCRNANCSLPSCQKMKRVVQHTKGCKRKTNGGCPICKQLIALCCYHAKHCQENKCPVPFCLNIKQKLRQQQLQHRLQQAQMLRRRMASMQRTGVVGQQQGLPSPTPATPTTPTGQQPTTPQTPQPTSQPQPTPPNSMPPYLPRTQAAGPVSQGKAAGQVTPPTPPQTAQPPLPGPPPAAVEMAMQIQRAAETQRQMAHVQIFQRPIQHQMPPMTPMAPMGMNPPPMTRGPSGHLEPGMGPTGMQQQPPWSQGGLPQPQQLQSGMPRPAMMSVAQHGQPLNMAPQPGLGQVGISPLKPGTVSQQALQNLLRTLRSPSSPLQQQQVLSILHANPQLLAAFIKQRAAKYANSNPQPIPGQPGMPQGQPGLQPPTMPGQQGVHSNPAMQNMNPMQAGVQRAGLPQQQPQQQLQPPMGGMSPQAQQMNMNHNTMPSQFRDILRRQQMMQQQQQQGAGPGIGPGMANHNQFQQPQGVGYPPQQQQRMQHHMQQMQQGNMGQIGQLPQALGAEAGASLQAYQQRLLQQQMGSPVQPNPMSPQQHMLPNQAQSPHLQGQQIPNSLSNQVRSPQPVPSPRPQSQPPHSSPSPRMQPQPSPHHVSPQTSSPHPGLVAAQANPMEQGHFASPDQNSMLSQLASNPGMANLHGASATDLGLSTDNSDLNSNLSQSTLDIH

On to `CNC(=O)N1CCc2c(c(N3CCCc4cc(-c5cnn(CC(=O)NCCCCCCCCC(=O)N[C@H](C(=O)N6C[C@H](O)C[C@H]6C(=O)NCc6ccc(-c7scnc7C)cc6)C(C)(C)C)c5)c(C(F)F)cc43)nn2C2CCOCC2)C1` [P-081, 3-(7-(Difluoromethyl)-6-(1-(2-((9-(((S)-1-((2S,4R)-4-hydroxy-2-((4-(4-methylthiazol-5-yl)benzyl)carbamoyl)pyrrolidin-1-yl)-3,3-dimethyl-1-oxobutan-2-yl)amino)-9-oxononyl)amino)-2-oxoethyl)-1H-pyrazol-4-yl)-3,4-dihydroquinolin-1(2H)-yl)-N-methyl-1-(tetrahydro-2H-pyran-4-yl)-1,4,6,7-tetrahydro-5H-pyrazolo[4,3-c]pyridine-5-carboxamide], for which it took 0.469 µM to reach half-maximal inhibition in assay [1] (CellTiter-Glo (Table 3)) (IC50). Further, the inhibition at 0.01 µM in assay [2] (setting [3]) is < 20%.
For `CNC(=O)N1CCc2c(c(N3CCCc4cc(-c5cnn(C)c5)c(C(F)F)cc43)nn2C2CCN(C(=O)CCOCCOCCNc3cccc4c3C(=O)N(C3CCC(=O)NC3=O)C4=O)CC2)C1` (stereo not shown) [P-052, 3-(7-(Difluoromethyl)-6-(1-methyl-1H-pyrazol-4-yl)-3,4-dihydroquinolin-1(2H)-yl)-1-(1-(3-(2-(2-((2-(2,6-dioxopiperidin-3-yl)-1,3-dioxoisoindolin-4-yl)amino)ethoxy)ethoxy)propanoyl)piperidin-4-yl)-N-methyl-1,4,6,7-tetrahydro-5H-pyrazolo[4,3-c]pyridine-5-carboxamide], in that order: 0.105 µM and < 20%.
In assay [1] (CellTiter-Glo (Table 2)), `CNC(=O)N1CCc2c(c(N3CCCc4cc(-c5cnn(CC(=O)NCCNc6ccc7c(c6)C(=O)N(C6CCC(=O)NC6=O)C7=O)c5)c(C(F)F)cc43)nn2C2CCOCC2)C1` (stereo not shown) [P-016, 3-(7-(Difluoromethyl)-6-(1-(2-((2-((2-(2,6-dioxopiperidin-3-yl)-1,3-dioxoisoindolin-5-yl)amino)ethyl)amino)-2-oxoethyl)-1H-pyrazol-4-yl)-3,4-dihydroquinolin-1(2H)-yl)-N-methyl-1-(tetrahydro-2H-pyran-4-yl)-1,4,6,7-tetrahydro-5H-pyrazolo[4,3-c]pyridine-5-carboxamide] returned an IC50 of 3.04 µM. In assay [2] (setting [4]), the inhibition at 0.01 µM is < 20%.
For `CNC(=O)N1CCc2c(c(N3CCCc4cc(-c5cnn(C)c5)c(C(F)F)cc43)nn2C2CCN(C(=O)CCOCCOCCOCCOCCOCCNc3ccc4c(c3)C(=O)N(C3CCC(=O)NC3=O)C4=O)CC2)C1` (stereo not shown) [P-012, 3-(7-(Difluoromethyl)-6-(1-methyl-1H-pyrazol-4-yl)-3,4-dihydroquinolin-1(2H)-yl)-1-(1-(1-((2-(2,6-dioxopiperidin-3-yl)-1,3-dioxoisoindolin-5-yl)amino)-3,6,9,12,15-pentaoxaoctadecan-18-oyl)piperidin-4-yl)-N-methyl-1,4,6,7-tetrahydro-5H-pyrazolo[4,3-c]pyridine-5-carboxamide], in that order: 0.197 µM and < 20%.
`CNC(=O)N1CCc2c(c(N3CCCc4cc(-c5cnn(C)c5)c(C(F)F)cc43)nn2C2CCN(C(=O)CCCCCCc3cccc4c3CN(C3CCC(=O)NC3=O)C4=O)CC2)C1` (stereo not shown) [P-086, 3-(7-(Difluoromethyl)-6-(1-methyl-1H-pyrazol-4-yl)-3,4-dihydroquinolin-1(2H)-yl)-1-(1-(7-(2-(2,6-dioxopiperidin-3-yl)-1-oxoisoindolin-4-yl)heptanoyl)piperidin-4-yl)-N-methyl-1,4,6,7-tetrahydro-5H-pyrazolo[4,3-c]pyridine-5-carboxamide]: the IC50 in assay [1] (CellTiter-Glo (Table 3)) was 0.0211 µM. Besides, the inhibition at 0.01 µM in assay [2] (setting [3]) was in the range of 50 to 80%.
For `CNC(=O)N1CCc2c(c(N3CCCc4cc(-c5cnn(C)c5)c(C(F)F)cc43)nn2C2CCN(C(=O)CCOCCOCCNc3ccc4c(c3)C(=O)N(C3CCC(=O)NC3=O)C4=O)CC2)C1` (stereo not shown) [P-009, 3-(7-(difluoromethyl)-6-(1-methyl-1H-pyrazol-4-yl)-3,4-dihydroquinolin-1(2H)-yl)-1-(1-(3-(2-(2-((2-(2,6-dioxopiperidin-3-yl)-1,3-dioxoisoindolin-5-yl)amino)ethoxy)ethoxy)propanoyl)piperidin-4-yl)-N-methyl-1,4,6,7-tetrahydro-5H-pyrazolo[4,3-c]pyridine-5-carboxamide], the IC50 in assay [1] (CellTiter-Glo (Table 2)) was 0.115 µM. Moreover, the inhibition at 0.01 µM in assay [2] (setting [4]) lay within 20 to 50%.
On to `CNC(=O)N1CCc2c(c(N3CCCc4cc(-c5cnn(C)c5)c(C(F)F)cc43)nn2C2CCN(C(=O)CCCNc3cccc4c3C(=O)N(C3CCC(=O)NC3=O)C4=O)CC2)C1` (stereo not shown) [P-015, 3-(7-(difluoromethyl)-6-(1-methyl-1H-pyrazol-4-yl)-3,4-dihydroquinolin-1(2H)-yl)-1-(1-(4-((2-(2,6-dioxopiperidin-3-yl)-1,3-dioxoisoindolin-4-yl)amino)butanoyl)piperidin-4-yl)-N-methyl-1,4,6,7-tetrahydro-5H-pyrazolo[4,3-c]pyridine-5-carboxamide], for which, in assay [1] (CellTiter-Glo (Table 2)), the IC50 came out at 0.0073 µM. Moreover, the inhibition at 0.01 µM in assay [2] (setting [4]) is > 80%.
For `CNC(=O)N1CCc2c(c(N3CCCc4cc(-c5cnn(CC(=O)NCC(=O)N[C@H](C(=O)N6C[C@H](O)C[C@H]6C(=O)NCc6ccc(-c7scnc7C)cc6)C(C)(C)C)c5)c(C(F)F)cc43)nn2C2CCOCC2)C1` [P-044] the same measures were > 10 µM and < 20%.
`CNC(=O)N1CCc2c(c(N3CCCc4cc(-c5cnn(C)c5)c(C(F)F)cc43)nn2C2CCN(C(=O)CCCCCNc3ccc4c(c3)n(C)c(=O)n4C3CCC(=O)NC3=O)CC2)C1` (stereo not shown) [P-115, 3-(7-(difluoromethyl)-6-(1-methyl-1H-pyrazol-4-yl)-3,4-dihydroquinolin-1(2H)-yl)-1-(1-(6-((1-(2,6-dioxopiperidin-3-yl)-3-methyl-2-oxo-2,3-dihydro-1H-benzo[d]imidazol-5-yl)amino)hexanoyl)piperidin-4-yl)-N-methyl-1,4,6,7-tetrahydro-5H-pyrazolo[4,3-c]pyridine-5-carboxamide]: the IC50 in assay [1] (CellTiter-Glo (Table 3)) is 0.0071 µM. Moreover, in assay [2] (setting [3]), the inhibition at 0.01 µM was > 80%.
For `CC(=O)N1CCc2c(c(N3CCCc4cc(-c5cnn(C)c5)c(C(F)F)cc43)nn2C2CCN(C(=O)CCCCCNc3cccc4c3n(C)c(=O)n4C3CCC(=O)NC3=O)CC2)C1` (stereo not shown) [P-110, 3-(4-((6-(4-(5-acetyl-3-(7-(difluoromethyl)-6-(1-methyl-1H-pyrazol-4-yl)-3,4-dihydroquinolin-1(2H)-yl)-4,5,6,7-tetrahydro-1H-pyrazolo[4,3-c]pyridin-1-yl)piperidin-1-yl)-6-oxohexyl)amino)-3-methyl-2-oxo-2,3-dihydro-1H-benzo[d]imidazol-1-yl)piperidine-2,6-dione] the same measures were 0.0311 µM and > 80%.
The molecule `CC(=O)N1CCc2c(c(N3CCCc4cc(-c5cnn(C)c5)c(C(F)F)cc43)nn2C2CCN(C(=O)CCCCCCCNc3ccc4c(c3)n(C)c(=O)n4C3CCC(=O)NC3=O)CC2)C1` (stereo not shown) [P-161] gave an IC50 in assay [1] (CellTiter-Glo (Table 3)) of 0.0001 µM. Also, in assay [2] (setting [3]), the inhibition at 0.01 µM was > 80%.
For `CNC(=O)N1CCc2c(c(N3CCCc4cc(-c5cnn(C)c5)c(C(F)F)cc43)nn2C2CCN(C(=O)CCCC(=O)N[C@H](C(=O)N3C[C@H](O)C[C@H]3C(=O)NCc3ccc(-c4scnc4C)cc3)C(C)(C)C)CC2)C1` [P-057, 3-(7-(Difluoromethyl)-6-(1-methyl-1H-pyrazol-4-yl)-3,4-dihydroquinolin-1(2H)-yl)-1-(1-(5-(((S)-1-((2S,4R)-4-hydroxy-2-((4-(4-methylthiazol-5-yl)benzyl)carbamoyl)pyrrolidin-1-yl)-3,3-dimethyl-1-oxobutan-2-yl)amino)-5-oxopentanoyl)piperidin-4-yl)-N-methyl-1,4,6,7-tetrahydro-5H-pyrazolo[4,3-c]pyridine-5-carboxamide] the same measures were 0.0766 µM and < 20%.
For `CNC(=O)N1CCc2c(c(N3CCCc4cc(-c5cnn(C)c5)c(C(F)F)cc43)nn2C2CCN(C(=O)CCCCCCCCCC(=O)N[C@H](C(=O)N3C[C@H](O)C[C@H]3C(=O)NCc3ccc(-c4scnc4C)cc3)C(C)(C)C)CC2)C1` [P-063, 3-(7-(Difluoromethyl)-6-(1-methyl-1H-pyrazol-4-yl)-3,4-dihydroquinolin-1(2H)-yl)-1-(1-(11-(((S)-1-((2S,4R)-4-hydroxy-2-((4-(4-methylthiazol-5-yl)benzyl)carbamoyl)pyrrolidin-1-yl)-3,3-dimethyl-1-oxobutan-2-yl)amino)-11-oxoundecanoyl)piperidin-4-yl)-N-methyl-1,4,6,7-tetrahydro-5H-pyrazolo[4,3-c]pyridine-5-carboxamide] the same measures were 0.0289 µM and 20 to 50%.
`CC(=O)N1CCc2c(c(N3CCCc4cc(-c5cnn(C)c5)c(C(F)F)cc43)nn2C2CCN(C(=O)CCCCCn3c(=O)n(C4CCC(=O)NC4=O)c4ccccc43)CC2)C1` (stereo not shown) [P-107, 3-(3-(6-(4-(5-Acetyl-3-(7-(difluoromethyl)-6-(1-methyl-1H-pyrazol-4-yl)-3,4-dihydroquinolin-1(2H)-yl)-4,5,6,7-tetrahydro-1H-pyrazolo[4,3-c]pyridin-1-yl)piperidin-1-yl)-6-oxohexyl)-2-oxo-2,3-dihydro-1H-benzo[d]imidazol-1-yl)piperidine-2,6-dione] showed an IC50 in assay [1] (CellTiter-Glo (Table 3)) of 0.0204 µM. The inhibition at 0.01 µM in assay [2] was 50 to 80%.
